Source: patent US20240025903A1, “Bicyclic Compounds and Uses Thereof for the Treatment of Diseases” (Athira Pharma, Inc., priority 2020, published 2024)
Read-outs that look alike come from different tables or passages of the source.

Assays:
[1] = test system: MDCK cells; experiment: Cell scattering behavior assay; assay type: cell-based; conditions: 5 ng/mL HGF, 24 hours, normalized particle count vs HGF alone
Summary of the method: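 MDCK cells starved 2 h in serum-free DMEM, then treated 24 h at 37 °C with compounds plus 5 ng/mL HGF. Cells were ethanol-fixed, WGA488-stained and imaged. Scattering was scored as particle count normalized to stained area, with activity taken as a statistical increase in normalized particle count over HGF alone.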

[2] = Non-specific protein binding (rapid equilibrium dialysis); assay type: in vitro ADME, Sprague-Dawley rats; conditions: both sexes, Sprague-Dawley, RED device, 4-hour incubation at 37° C.
Description: Plasma and tissue exposures of exemplary compounds were scaled by their non-specific affinity for protein binding in target tissues or fluids to determine the fraction of compound available for interaction with the target. Non-specific binding was determined in blood plasma and brain homogenate collected from mixed-sex Sprague-Dawley rats.
Known concentrations of test compounds were mixed with plasma or brain homogenate and incubated in the donor chamber of a rapid equilibrium dialysis (RED) device with empty PBS buffer in the receiving chamber. After a 4-hour incubation at 37° C. in an orbital shaking incubator, compound in each chamber was quantified by LC-MS/MS. The unbound fraction (fu,tissue) was calculated using the following formula:
[formula] • where: • fu,tissue is the unbound fraction in the tissue; • fu,homogenate is the ratio of concentration in the buffer chamber to concentration in the sample chamber; and • D is the dilution factor used to produce the sample.

[3] = test system: HepG2 cells; experiment: Cytotoxicity assay (LDH release); assay type: cell-based; conditions: 48 hours, 0.1 to 100 μM
Summary of the method: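 Cells in EMEM+10% FBS treated 48 h at 37° C with compounds at 0.1-100 μM; cerivastatin 0.5 μM served as positive control. LDH released into supernatant measured colorimetrically at 490 nm, range set by untreated and full-lysis controls; >20% above negative control counted as cytotoxic.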

[4] = Oral availability calculation; assay type: in vivo, Sprague-Dawley rats; conditions: both sexes, Sprague-Dawley, plasma; rat, dose corrected AUC PO / dose corrected AUC IV x 100
Text: Oral bioavailability is critical to developing small molecule therapeutics for oral administration. Calculations of oral bioavailability (% F) are accomplished by comparing in vivo pharmacokinetic data (Example B7) using IV dosing as the maximum possible exposure and determining the exposure rate after PO administration. In these studies, dose corrected AUC from PO administration was divided by dose corrected AUC from IV administration and multiplied by 100 to yield the % F. Results are shown in Table 9.

[5] = In vivo tissue distribution; parameters: species or system Sprague-dawley rats; conditions: rat
Description: The rate of distribution to target tissues is an important feature of therapeutic molecules. Tissue distribution of exemplary compounds was performed in mixed-sex Sprague-dawley rats. Test compounds were delivered via tail vein injection (IV) and tissues were collected at Tmax (10 minutes post administration). Animals were deeply anesthetized with isoflurane and whole blood was collected from the right atrium and processed by centrifugation to produce plasma. Animals were then fully perfused with PBS administered to the left ventricle to prevent blood contamination of tissues.
Tissues were collected and homogenized, and compound content in the target tissue was quantified by LC-MS/MS. Tissue distribution rates were determined by dividing the tissue concentration of compound by the plasma concentration and multiplying by 100.

[6] = rat blood plasma, read-out: Unbound Fraction Plasma
[7] = rat brain homogenate, read-out: Unbound Fraction Brain

fraction unbound at 4 h [2, 6]	fraction unbound at 4 h [2, 7]	bioavailability [4] [%]	Structure (SMILES)	Potency (cell scattering) [1]	Cytotoxicity [3]	Tissue Distribution (% Plasma exposure at 10 min post IV dose) Brain [5]	Tissue Distribution (% Plasma exposure at 10 min post IV dose) Cerebellum [5]	Tissue Distribution (% Plasma exposure at 10 min post IV dose) Cortex [5]	Tissue Distribution (% Plasma exposure at 10 min post IV dose) Hippocampus [5]	Tissue Distribution (% Plasma exposure at 10 min post IV dose) Muscle ([5]; muscle)	Tissue Distribution (% Plasma exposure at 10 min post IV dose) Sciatic Nerve [5]
0.1 to 0.5	< 0.1	1 to 25	CCC(C)CN1CC2N(Cc3ccc(OC(F)F)cc3)CCC(=O)N2[C@@H](C)C1=O (stereo partly drawn) [Compound 6a]	+++ (+++ indicates maximum potency at or above 1 nM)	++++ (++++ indicates non-toxic at 100 μM)	++ (++ indicates distribution between 5 and 39%)	++ (++ indicates distribution between 5 and 39%)	++ (++ indicates distribution between 5 and 39%)	++ (++ indicates distribution between 5 and 39%)	++++ (++++ indicates distribution above 70%)	++++ (++++ indicates distribution above 70%)
0.5 to 0.9	0.1 to 0.5	25 to 50	CCC(C)CN1CC2N(C(=O)c3ccc(C(F)(F)F)cc3)CCC(=O)N2[C@@H](C)C1=O (stereo partly drawn) [Compound 1a]	++++ (++++ indicates maximum potency at or above 0.1 nM)	++++ (++++ indicates non-toxic at 100 μM)	++ (++ indicates distribution between 5 and 39%)	++ (++ indicates distribution between 5 and 39%)	++ (++ indicates distribution between 5 and 39%)	++ (++ indicates distribution between 5 and 39%)		
0.1 to 0.5	> 0.9	25 to 50	C=CCCN1CC2N(C(=O)c3ccc(C(F)(F)F)cc3)CCC(=O)N2C(C)C1=O (stereo not drawn) [Compound 22]	++ (++ indicates maximum potency at or above 10 nM)	++++ (++++ indicates non-toxic at 100 μM)	++ (++ indicates distribution between 5 and 39%)	++ (++ indicates distribution between 5 and 39%)	++ (++ indicates distribution between 5 and 39%)	++ (++ indicates distribution between 5 and 39%)		+++ (+++ indicates distribution between 40 and 69%)
